# Results reported in a melting point compilation (Tetko et al.).
row,Compound,melting point
1,OC1CNc2c(ccc3ccccc23)C1 (configuration not stated),144 to 146 °C
2,CN1C(=O)CC(O)C1=O (configuration not stated),82 to 87 °C
3,NC(=O)CNS(=O)(=O)c1c[nH]c(C(=O)O)c1,239 to 241 °C
4,N#CCN1CCC(O)CC1,76 to 78 °C
5,Nc1cc(C(=O)O)c(F)cc1F,169 to 171 °C
6,Nc1c(O)cccc1F,121 to 123 °C
7,O=C(O)c1sc2ccccc2c1CSc1ccccc1Cl,183 to 185 °C
8,Sc1nnc(NCC2CCCO2)s1 (configuration not stated),123 to 125 °C
9,O=C(O)Cc1ccco1,64 to 69 °C
10,CC(C)NS(=O)(=O)Cc1ccc(CN)cc1,148 to 150 °C
11,CC(NS(=O)(=O)c1ccc(Cl)cc1)C(=O)O (configuration not stated),136 to 138 °C
12,CC(N)c1ccc(-n2ccnc2)cc1 (configuration not stated),50 to 52 °C
13,O=C(O)c1cccc(NC(=O)c2ccc(F)cc2)c1,279 to 281 °C
14,CN(C)S(=O)(=O)c1cccc(-c2nnc(S)n2N)c1,200 to 202 °C
15,O=C(CCl)Nc1ccc(N2CCc3ccccc32)cc1,167 to 169 °C
16,C=CCn1c(=O)c2ccccc2n2c(S)nnc12,177 to 179 °C
17,CC(O)c1ccc2c(c1)CC(=O)N2 (configuration not stated),171 to 173 °C
18,O=C(O)c1cc2c(F)cc(F)cc2[nH]1,252 to 254 °C
19,CCC(=O)c1ccc(Cl)c(Cl)c1O,98 to 100 °C
20,Cc1nn(C)c(C(F)(F)Cl)c1C(=O)O,122 to 124 °C
21,Nc1ccc(S(=O)(=O)Nc2ccccc2Cl)c(Cl)c1,239 to 241 °C
22,CCc1cc(OCC(=O)O)ccc1Cl,143 to 145 °C
23,O=C(O)c1cocn1,129 to 131 °C
24,CC(C)(C)c1c(C(=O)O)nnn1-c1ccc(Cl)cc1F,152 to 154 °C
25,O=C1NCCNC1c1ccc(C(F)(F)F)cc1 (configuration not stated),141 to 143 °C
26,COc1ncncc1N,71 to 73 °C

row,Compound,melting point
1,CC(NC(=O)CC#N)c1ccccc1 (configuration not stated),115 to 117 °C
2,O=C(O)c1cc(-c2ccccc2)nc2c1cnn2Cc1cccnc1,210 to 212 °C
3,CC(C)C(Oc1ccc(F)cc1F)C(=O)O (configuration not stated),67 to 69 °C
4,O=C(O)CCn1cc(Br)cn1,112 to 114 °C
5,Cn1c(N)nccc1=O,257 to 259 °C
6,O=C(CBr)c1cc2cc(Cl)ccc2o1,168 to 170 °C
7,Cc1oc(C(=O)O)cc1Cn1cc(Br)cn1,154 to 156 °C
8,O=C(O)C1C2CC3CC(C2)CC1C3 (configuration not stated),121 to 123 °C
9,COc1ccc(N2C(=O)CCC(C(=O)O)C2c2ccccc2OC)cc1 (configuration not stated),205 to 208 °C
10,O=c1[nH]nc(N2CCNCC2)c(=O)[nH]1,150 to 152 °C
11,NCc1nnc2n1CCC2,20 to 22 °C
12,CCN(CC)C(=O)c1ccc(O)cc1,120 to 122 °C
13,NNC(=O)c1cccc(S(=O)(=O)N2CCOCC2)c1,140 to 142 °C
14,Cc1oc(-c2cccs2)nc1CCl,65 to 67 °C
15,CS(=O)c1ccc(C=O)cc1 (configuration not stated),88 to 90 °C
16,Clc1ccc(CN2CCNCC2)cn1,89 to 91 °C
17,Nc1n[nH]c2ccccc12,152 to 154 °C
18,NC(=O)CCOc1ccccc1F,85 to 87 °C
19,N#CC(C(=O)CCl)c1nc2ccccc2c(=O)[nH]1 (configuration not stated),216 to 218 °C
20,Nn1c(S)nnc1-c1ccccc1Cl,110 to 113 °C
21,Clc1cc(C2=NCCN2)ccn1,165 to 167 °C
22,CC1=C(C)C(=O)NC1=O,113 to 115 °C
23,Nc1cc(C2CCOCC2)no1,159 to 161 °C
24,Cc1nn(-c2ccccc2)c(N2CCCCC2)c1C=O,75 to 77 °C
25,Nc1ccc(F)c(S(=O)(=O)NC2CC2)c1,107 to 109 °C
26,Nc1cc(N2CCNC2=O)ccc1Cl,224 to 226 °C

row,Compound,melting point
1,CNC(C)(C#N)Cn1cc(Br)cn1 (configuration not stated),33 to 35 °C
2,CC(=O)Nc1ccc(C)cc1N,132 to 134 °C
3,CNS(=O)(=O)N1CCc2ccccc2C1,88 to 90 °C
4,N#Cc1ccccc1OCc1cccc(C(=O)O)c1,153 to 155 °C
5,CN1C(=O)C(C(N)=NO)=C(N)C12CCCC2,210 to 212 °C
6,CCOc1ccccc1CCC(=O)O,70 to 72 °C
7,NC(=O)N1CCN2C(=O)NC(=O)C2C1 (configuration not stated),250 to 252 °C
8,Cc1ccc(-c2nn(-c3ccc(F)cc3)cc2C(=O)O)cc1,212 to 214 °C
9,O=C(CCl)c1c[nH]c(C(=O)N2CCCC2)c1,200 to 204 °C
10,Cn1cnc(-c2ccc(C(=O)O)cc2)n1,274 to 276 °C
11,CC(C)(C)OC(=O)N1CC(=CC(=O)O)C1,140 to 142 °C
12,CC(C)(C)OC(=O)NCCc1nnc2n1CCCC2,158 to 160 °C
13,Cc1ccc(C(=O)O)cc1S(=O)(=O)N1CCCCC1,179 to 181 °C
14,O=C(O)CCc1ccc(-c2ccccc2F)o1,117 to 119 °C
15,O=C(O)c1cc(=O)n(-c2ccc([N+](=O)[O-])cc2)[nH]1,225 to 227 °C
16,NCC(O)COc1ccc2c(c1)OCO2 (configuration not stated),107 to 109 °C
17,CS(=O)(=O)Nc1ccc(C(=O)O)c(O)c1,227 to 229 °C
18,COc1ccc(S(=O)(=O)N2CCc3ccccc32)cc1C(=O)O,136 to 138 °C
19,CC(=CC(=O)O)c1ccccc1F,101 to 103 °C
20,Cc1c(CN)cnn1C,38 to 40 °C
21,COC(=O)c1c(Cl)ncnc1Cl,50 to 52 °C
22,Nc1nnc(Cc2cccc(Cl)c2)s1,196 to 198 °C
23,O=C1C2C3C=CC(C3)C2C(=O)N1c1cccc(Br)c1 (configuration not stated),192 to 194 °C
24,O=C(O)c1cc(F)cnc1Cl,143 to 144 °C
25,CNCc1ccc(N)nc1,84 to 86 °C
26,CCC1C(=O)NC(=S)N(c2ccc(Cl)cc2)C1=O (configuration not stated),148 to 150 °C

row,Compound,melting point
1,Cc1[nH]c(=O)c(C#N)c(C)c1CCC(=O)O,253 to 257 °C
2,CC(=O)c1ccc(-n2c(C)c[nH]c2=O)cc1,203 to 205 °C
3,CN(C)c1ccc(N2C(=O)C=CC2=O)cc1,152 to 154 °C
4,O=C(O)c1ccc(-c2cc(F)c(F)c(F)c2)cc1,264 to 266 °C
5,CCOc1ccccc1OCCC(=O)O,97 to 99 °C
6,O=C(O)C(c1ccc(Br)cc1)N1CCCC1 (configuration not stated),214 to 216 °C
7,O=[N+]([O-])c1ccc(S(=O)(=O)Cl)cc1Br,59 to 61 °C
8,Nc1cc(CCc2ccccc2)[nH]n1,58 to 60 °C
9,CN(C)S(=O)(=O)c1ccc(=O)[nH]c1,212 to 216 °C
10,CNc1ccc(F)cc1[N+](=O)[O-],71 to 73 °C
11,CNc1nc(-c2ccccc2)no1,124 to 126 °C
12,CC(C)N(C(C)C)S(=O)(=O)c1ccc(NN)nc1,159 to 161 °C
13,O=C(Nc1cccnc1)c1ccc(O)cc1,273 to 275 °C
14,O=C(CCl)Nc1cc(C2CC2)nn1-c1ccccc1,120 to 122 °C
15,CCC(C)Nc1ccc(C(N)=O)cc1 (configuration not stated),113 to 115 °C
16,O=C(CCl)NCc1ccc(COc2ccccc2)cc1,123 to 125 °C
17,Cn1c(Cl)c(C=O)c2ccccc21,92 to 94 °C
18,Cc1ccc(N)cc1N1C(=O)CCC1=O,199 to 201 °C
19,NC(=S)c1cccnc1N1CCNC(=O)C1,189 to 191 °C
20,O=C(O)c1ccc(NC(=O)c2cc(Cl)cc(Cl)c2)cc1,305 to 307 °C
21,CC(C)Cn1cnc2c1c(=O)[nH]c(=O)n2CC(C)C,158 to 160 °C
22,O=C(O)C1CC1c1ccc(F)c(F)c1 (configuration not stated),89 to 91 °C
23,COc1ccc(CCNC(C)=O)cc1S(N)(=O)=O,194 to 196 °C
24,O=C(O)CN1CCN(C(=O)OCc2ccccc2)CC1,142 to 144 °C
